The source made the active and inactive calls. No rule for the calls is given here.
Test system: CCRIS mutagenicity, Ames/micronucleus/aberration tests
Test: CCRIS mutagenicity studies
[1] = Test System: AMES SALMONELLA TYPHIMURIUM, Strain/Indicator: TA100, Metabolic Activation: NONE, Method: STANDARD PLATE

Measured: mutagenic call

CN(N=O)C(N)=O
active: End Point: IN VITRO CHROMOSOMAL ABERRATIONS, Test System: CHINESE HAMSTER V79-E CELLS, Metabolic Activation: NONE active; positive | End Point: IN VITRO CHROMOSOMAL ABERRATIONS, Test System: V79 CELLS (V79-C10), Metabolic Activation: NONE active; positive | End Point: IN VITRO MICRONUCLEUS, Test System: CHINESE HAMSTER V79 CELLS, Metabolic Activation: NONE active; positive at the cytotoxic dose of 0.8 mm | End Point: IN VITRO MICRONUCLEUS, Test System: MOUSE LYMPHOMA L5178Y CELLS, Metabolic Activation: NONE active; positive | End Point: Mutagenicity, Test System: Spleen: t-lymphocytes/hprt mutants, Species: Rat, Strain/Sex: Wistar/male, Route: Intraperitoneal active; positive; mutation induction dramatically lower following subchronic treatment; | Test System: AMES SALMONELLA TYPHIMURIUM, Strain/Indicator: G46, Metabolic Activation: NONE, Method: STANDARD PLATE active; positive | Test System: AMES SALMONELLA TYPHIMURIUM, Strain/Indicator: TA100, Metabolic Activation: NONE, Method: LIQUID INCUBATION active; positive | [1] active; positive | Test System: AMES SALMONELLA TYPHIMURIUM, Strain/Indicator: TA100, Metabolic Activation: RAT, LIVER, S-9, AROCLOR 1254, Method: PREINCUBATION active; positive | Test System: AMES SALMONELLA TYPHIMURIUM, Strain/Indicator: TA100, Metabolic Activation: RAT, LIVER, S-9, KC500 OR PHENOBARBITAL, Method: LIQUID SUSPENSION active; positive | Test System: AMES SALMONELLA TYPHIMURIUM, Strain/Indicator: TA100, Metabolic Activation: RAT, LIVER, S-9, PHENOBARBITAL, Method: STANDARD PLATE active; positive | Test System: AMES SALMONELLA TYPHIMURIUM, Strain/Indicator: TA102, Metabolic Activation: RAT, LIVER, S-9, AROCLOR 1254, Method: PREINCUBATION active; positive | Test System: AMES SALMONELLA TYPHIMURIUM, Strain/Indicator: TA104, Metabolic Activation: NONE, Method: PREINCUBATION active; positive | Test System: AMES SALMONELLA TYPHIMURIUM, Strain/Indicator: TA104, Metabolic Activation: RAT, LIVER, S-9, AROCLOR 1254, Method: PREINCUBATION active; positive | Test System: AMES SALMONELLA TYPHIMURIUM, Strain/Indicator: TA1530, Metabolic Activation: NONE, Method: PREINCUBATION active; positive | Test System: AMES SALMONELLA TYPHIMURIUM, Strain/Indicator: TA1530, Metabolic Activation: NONE, Method: STANDARD PLATE active; positive | Test System: AMES SALMONELLA TYPHIMURIUM, Strain/Indicator: TA1535, Metabolic Activation: NONE, Method: LIQUID INCUBATION active; positive | Test System: AMES SALMONELLA TYPHIMURIUM, Strain/Indicator: TA1535, Metabolic Activation: NONE, Method: PREINCUBATION active; positive | Test System: AMES SALMONELLA TYPHIMURIUM, Strain/Indicator: TA1535, Metabolic Activation: NONE, Method: STANDARD PLATE active; positive | Test System: AMES SALMONELLA TYPHIMURIUM, Strain/Indicator: TA1535, Metabolic Activation: RAT, LIVER, S-9, PCB OR PHENOBARBITAL, Method: STANDARD PLATE active; positive | Test System: AMES SALMONELLA TYPHIMURIUM, Strain/Indicator: YG7100, Metabolic Activation: NONE, Method: PREINCUBATION active; positive | Test System: AMES SALMONELLA TYPHIMURIUM, Strain/Indicator: YG7104, Metabolic Activation: NONE, Method: PREINCUBATION active; positive | Test System: AMES SALMONELLA TYPHIMURIUM, Strain/Indicator: YG7108, Metabolic Activation: NONE, Method: PREINCUBATION active; positive | Test System: AMES SALMONELLA TYPHIMURIUM, Strain/Indicator: YG7112, Metabolic Activation: NONE, Method: PREINCUBATION active; positive | Test System: AMES SALMONELLA TYPHIMURIUM, Strain/Indicator: YG7113, Metabolic Activation: NONE, Method: PREINCUBATION active; positive | Test System: AMES SALMONELLA TYPHIMURIUM, Strain/Indicator: YG7119, Metabolic Activation: NONE, Method: PREINCUBATION active; positive | Test System: CHINESE HAMSTER OVARY, Strain/Indicator: CHO-K1-BH4 (HGPRT), Metabolic Activation: NONE, Method: SUSPENSION/PLATE active; positive | Test System: CHINESE HAMSTER V-79, Strain/Indicator: V-79/6-THIOGUANINE, Metabolic Activation: NONE, Method: FLASK ASSAY active; positive | Test System: CHINESE HAMSTER V-79, Strain/Indicator: V-79/6-THIOGUANINE, Metabolic Activation: NONE, Method: STANDARD PLATE active; positive | Test System: CHINESE HAMSTER V-79, Strain/Indicator: V-79/8-AZAGUANINE, Metabolic Activation: NONE, Method: STANDARD PLATE active; positive | Test System: CHINESE HAMSTER V-79, Strain/Indicator: V-79/OUABAIN, Metabolic Activation: NONE active; positive | Test System: CHO/HGPRT, Strain/Indicator: CHO-K1-BH4, Metabolic Activation: NONE active; positive | Test System: CHO/HGPRT, Strain/Indicator: CHO-K1-BH4, Metabolic Activation: NONE, Method: STANDARD PLATE active; positive | Test System: E. COLI, Strain/Indicator: H/R30R, Metabolic Activation: NONE active; positive | Test System: E. COLI, Strain/Indicator: H/R30R, Metabolic Activation: NONE, Method: PREINCUBATION active; positive | Test System: E. COLI, Strain/Indicator: HS30R UVRA, Metabolic Activation: NONE, Method: PREINCUBATION active; positive | Test System: E. COLI, Strain/Indicator: HS30R, Metabolic Activation: NONE active; positive | Test System: E. COLI, Strain/Indicator: NG30 RECA, Metabolic Activation: NONE, Method: PREINCUBATION active; positive | Test System: E. COLI, Strain/Indicator: O16 POLA, Metabolic Activation: NONE, Method: PREINCUBATION active; positive | Test System: E. COLI, Strain/Indicator: WP2, Metabolic Activation: NONE, Method: FLUCTUATION active; positive | Test System: E. COLI, Strain/Indicator: WP2, Metabolic Activation: NONE, Method: STANDARD PLATE active; positive | Test System: E. COLI, Strain/Indicator: WP2 UVRA, Metabolic Activation: NONE, Method: FLUCTUATION active; positive | Test System: E. COLI, Strain/Indicator: WP2 UVRA, Metabolic Activation: NONE, Method: STANDARD PLATE active; positive | Test System: LacZ transgenic mouse (Muta Mouse), Strain/Indicator: LacZ Mutant frequency, Method: Liver and kidney harvested 37 days after last dose active; positive in kidney. no increase in mutation frequency in liver. | Test System: UDS HUMAN CELLS, Strain/Indicator: THY INCORP (NON-S-PHASE), Metabolic Activation: NONE, Method: LIQUID SCINTILLATION COUNTING active; positive | Test System: UDS HUMAN FIBROBLASTS, Strain/Indicator: THY INCORP (NON-S-PHASE), Metabolic Activation: NONE, Method: AUTORADIOGRAPHY active; positive | Test System: UDS MOUSE SPERMATOGONIAL AND POSTSPERMATOGONIAL CELLS IN VIVO, Strain/Indicator: THYMIDINE INCORPORATION, Metabolic Activation: NONE, Method: AUTORADIOGRAPHY active; positive | Test System: UDS RODENT CELLS, Strain/Indicator: THY INCORP (NON-S-PHASE), Metabolic Activation: NONE, Method: LIQUID SCINTILLATION COUNTING active; positive

O=C(O)c1cn(C2CC2)c2c(Cl)c(N3C[C@@H]4CCCN[C@@H]4C3)c(F)cc2c1=O
active: Test System: CHINESE HAMSTER V-79, Strain/Indicator: V-79 (HGPRT)/6-THIOGUANINE, Metabolic Activation: NONE, Method: STANDARD PLATE active; positive | Test System: CHINESE HAMSTER, Strain/Indicator: V-79(HPRT)/6-THIOGUANINE, Metabolic Activation: NONE, Method: SUSPENSION/PLATE active; positive

O=C(NCCCl)Nc1ncc([N+](=O)[O-])s1
active: Test System: AMES SALMONELLA TYPHIMURIUM, Strain/Indicator: TA98, Metabolic Activation: NONE, Method: STANDARD PLATE active; positive | [1] active; positive
